Data published in patent publication US20240270821A1, “GIP/GLP1/GCG TRI-RECEPTOR AGONISTS AND USES THEREOF” (priority 2023, published 2024).
Where two headings read alike, the source gives them in different places. Starred links: 1 amine or outer side, 2 acyl side, 3 side chain; linkers in the order of their positions; H or OH if unused. Non-standard residues stand in square brackets, D forms with d. Residues, ends and D or L forms follow the SMILES beside them. Groups on a side chain read outwards from the residue. No end group written: not given here. *: point of attachment. C20 diacid = O=C(O)CCCCCCCCCCCCCCCCCCC(=O)*; C18 diacid = O=C(O)CCCCCCCCCCCCCCCCC(=O)*; αMePhe(2-F) = C[C@](N)(Cc1ccccc1F)C(=O)O; γGlu = O=C(O)[C@H](CCC(=O)[*:2])N[*:1]; αMe4Pal = C[C@](N)(Cc1ccncc1)C(=O)O; αMeY = C[C@](N)(Cc1ccc(O)cc1)C(=O)O; 4Pal = N[C@@H](Cc1ccncc1)C(=O)O; αMeL = CC(C)C[C@](C)(N)C(=O)O; αMeS = C[C@](N)(CO)C(=O)O; Orn = NCCC[C@H](N)C(=O)O; AEEA = NCCOCCOCC(=O)O; Aib = CC(C)(N)C(=O)O

Legend:
Format in all cases: cell-based
human GcgR = human GcgR (Homo sapiens, UniProt P47871); experiment: Functional cAMP activity in the presence of 1% HSA; conditions: read-out: cAMP Rel EC50, hGcgR
Sequence of human GcgR (P47871 26-477): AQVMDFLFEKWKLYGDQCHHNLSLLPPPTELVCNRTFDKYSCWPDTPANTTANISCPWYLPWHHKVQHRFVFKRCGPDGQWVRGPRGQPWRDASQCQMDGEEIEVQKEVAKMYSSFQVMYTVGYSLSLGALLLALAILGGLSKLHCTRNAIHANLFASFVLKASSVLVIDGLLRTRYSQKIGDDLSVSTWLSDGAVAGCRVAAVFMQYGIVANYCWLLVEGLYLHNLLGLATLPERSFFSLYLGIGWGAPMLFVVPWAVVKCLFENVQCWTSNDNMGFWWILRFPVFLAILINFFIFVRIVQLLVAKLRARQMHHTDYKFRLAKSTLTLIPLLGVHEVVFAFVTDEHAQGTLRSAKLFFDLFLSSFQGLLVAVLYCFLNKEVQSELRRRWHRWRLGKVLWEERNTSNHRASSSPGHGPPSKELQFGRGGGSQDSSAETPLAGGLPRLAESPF

hGIPR [1] = biological target: T1, hGIPR (Homo sapiens, UniProt P48546); experiment: Functional cAMP activation in the presence of 0.1% casein (no HSA); conditions: read-out: Relative cAMP EC50, hGIPR;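 further: intracellular cAMP rise after 30 min at 37 °C read by HTRF against a standard curve, scaled between buffer alone (0%) and top control ligand concentration (100%), four-parameter fit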
T1 sequence (P48546 22-466): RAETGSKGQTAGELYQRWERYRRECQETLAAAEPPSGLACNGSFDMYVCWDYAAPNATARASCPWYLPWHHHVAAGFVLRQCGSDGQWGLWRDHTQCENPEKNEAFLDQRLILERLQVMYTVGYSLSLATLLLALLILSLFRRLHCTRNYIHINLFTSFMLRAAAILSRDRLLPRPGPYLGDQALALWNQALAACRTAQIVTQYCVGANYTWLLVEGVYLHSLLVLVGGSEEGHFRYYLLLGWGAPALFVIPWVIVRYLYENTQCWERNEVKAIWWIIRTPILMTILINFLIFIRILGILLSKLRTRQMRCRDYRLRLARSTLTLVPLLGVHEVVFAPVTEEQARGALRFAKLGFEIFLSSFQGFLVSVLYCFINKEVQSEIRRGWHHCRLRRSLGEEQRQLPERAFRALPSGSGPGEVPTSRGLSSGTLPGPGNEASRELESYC

hGLP-1R [2] = biological target: T2, hGLP-1R (Homo sapiens, UniProt P43220); experiment: Functional cAMP activity in the presence of 1% HSA; conditions: read-out: cAMP Rel EC50, hGLP-1R
T2 sequence (P43220 24-463): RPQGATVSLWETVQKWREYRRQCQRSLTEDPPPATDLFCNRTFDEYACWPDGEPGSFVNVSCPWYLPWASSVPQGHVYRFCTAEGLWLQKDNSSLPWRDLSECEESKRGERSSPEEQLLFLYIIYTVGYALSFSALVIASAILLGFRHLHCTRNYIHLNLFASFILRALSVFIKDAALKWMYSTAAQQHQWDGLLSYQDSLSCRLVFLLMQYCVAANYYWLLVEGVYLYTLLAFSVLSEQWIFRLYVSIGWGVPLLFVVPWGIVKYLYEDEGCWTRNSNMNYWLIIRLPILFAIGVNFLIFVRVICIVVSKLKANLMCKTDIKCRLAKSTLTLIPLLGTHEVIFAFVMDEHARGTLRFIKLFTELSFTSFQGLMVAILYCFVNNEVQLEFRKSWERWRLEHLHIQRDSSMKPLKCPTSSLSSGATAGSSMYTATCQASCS

hGLP-1R [3] = biological target: T2, hGLP-1R; experiment: Functional cAMP activation in the presence of 0.1% casein (no HSA); conditions: read-out: Relative cAMP EC50, hGLP-1R;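 on Relative cAMP EC50, hGLP-1R: intracellular cAMP rise after 30 min at 37 °C read by HTRF, normalized between buffer only (0%) and maximal control ligand (100%), four-parameter variable-slope fit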;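 on Relative cAMP EC50, hGcgR: intracellular cAMP rise after 30 min at 37 °C, read by HTRF against a cAMP standard curve, scaled from buffer only (0%) to maximal control ligand response (100%)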
hGcgR = hGcgR (Homo sapiens, UniProt P47871); experiment: as above; conditions: read-out: Relative cAMP EC50, hGcgR;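 further: intracellular cAMP rise after 30 min at 37 °C, read by HTRF against a cAMP standard curve, scaled from buffer only (0%) to maximal control ligand response (100%)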
Sequence of hGcgR (P47871 26-477): as the sequence (P47871 26-477) above

hGIPR [4] = biological target: T1, hGIPR; experiment: Functional cAMP activity in the presence of 1% HSA; conditions: read-out: cAMP Rel EC50, hGIPR
[5] = 0.1% casein, no HSA, geometric mean
[6] = in the presence of 0.1% casein (no HSA), geometric mean
[7] = HEK-293 clonal cell line, 1% HSA, geometric mean of relative EC50
[8] = in the presence of 0.1% casein (no HSA), geometric mean of relative EC50

EC50 (hGIPR [1]) | EC50 (hGLP-1R [3]) | EC50 (hGcgR) | Compound | EC50 (human GcgR) | EC50 (hGLP-1R [2]) | EC50 (hGIPR [4]) | other results
 |  |  | H-Y[Aib]Q[dA]T[αMePhe(2-F)]TSD[4Pal][αMeS]I[αMeL]LD[Orn]K([AEEA-γGlu-C18 diacid])AQ[Aib]EFI[dE][αMeY]LIEGGPSSGAPPPSGSE-NH2 [Example 1222] | 470 nM | 44.8 nM | 12.4 nM | EC50 (hGIPR [1]; [5]): 0.0858 nM; EC50 (hGLP-1R [3]; [5]): 0.346 nM; EC50 (hGcgR; [5]): 2.55 nM
 |  |  | H-Y[Aib]Q[dA]T[αMePhe(2-F)]TSD[4Pal][αMeS]I[αMeL]LD[Orn]K([AEEA-γGlu-C18 diacid])AQ[Aib]EFI[dE][αMeY]LIEGGPSSGAPPPSGGGE-NH2 [Example 1223] | 472 nM | 40.7 nM | 9.25 nM | EC50 (hGIPR [1]; [5]): 0.0916 nM; EC50 (hGLP-1R [3]; [5]): 0.337 nM; EC50 (hGcgR; [5]): 2.61 nM
0.0448 nM | 0.43 nM | 4.84 nM | CC[C@H](C)[C@H](NC(=O)[C@H](Cc1ccccc1)NC(=O)[C@H](CC(N)=O)NC(=O)C(C)(C)NC(=O)[C@H](CCC(N)=O)NC(=O)[C@H](C)NC(=O)[C@H](CCCCNC(=O)CC[C@H](NC(=O)CC[C@H](NC(=O)CCCCCCCCCCCCCCCCC(=O)O)C(=O)O)C(=O)O)NC(=O)[C@H](CCCN)NC(=O)[C@H](CC(=O)O)NC(=O)[C@H](CC(C)C)NC(=O)[C@](C)(CC(C)C)NC(=O)[C@@H](NC(=O)[C@](C)(CO)NC(=O)[C@H](Cc1ccncc1)NC(=O)[C@H](CC(=O)O)NC(=O)[C@H](CO)NC(=O)[C@@H](NC(=O)[C@](C)(Cc1ccccc1F)NC(=O)[C@@H](NC(=O)CNC(=O)[C@H](CCC(N)=O)NC(=O)C(C)(C)NC(=O)[C@@H](N)Cc1ccc(O)cc1)[C@@H](C)O)[C@@H](C)O)[C@@H](C)CC)C(=O)N[C@H](CCC(=O)O)C(=O)N[C@@](C)(Cc1ccc(O)cc1)C(=O)N[C@@H](CC(C)C)C(=O)N[C@@H](CCC(N)=O)C(=O)N[C@@H](CCC(=O)O)C(=O)NCC(=O)NCC(=O)N1CCC[C@H]1C(=O)N[C@@H](CO)C(=O)N[C@@H](CO)C(=O)NCC(=O)N[C@@H](CCC(=O)O)C(=O)N1CCC[C@H]1C(=O)N1CCC[C@H]1C(=O)N1CCC[C@H]1C(=O)N[C@@H](CCC(=O)O)C(N)=O [Example 450] (H-Y[Aib]QGT[αMePhe(2-F)]TSD[4Pal][αMeS]I[αMeL]LD[Orn]K([γGlu-γGlu-C18 diacid])AQ[Aib]NFI[dE][αMeY]LQEGGPSSGEPPPE-NH2) | 553 nM | 18.4 nM | 3.75 nM | 
 |  |  | CC[C@H](C)[C@H](NC(=O)[C@H](CC(C)C)NC(=O)[C@](C)(Cc1ccc(O)cc1)NC(=O)[C@@H](CCC(=O)O)NC(=O)[C@@H](NC(=O)[C@H](Cc1ccccc1)NC(=O)[C@H](CCC(=O)O)NC(=O)[C@](C)(Cc1ccncc1)NC(=O)[C@H](CCC(N)=O)NC(=O)[C@H](C)NC(=O)[C@H](CCCCNC(=O)COCCOCCNC(=O)COCCOCCNC(=O)CC[C@H](NC(=O)CCCCCCCCCCCCCCCCC(=O)O)C(=O)O)NC(=O)[C@H](CCCN)NC(=O)[C@H](CC(=O)O)NC(=O)[C@H](CC(C)C)NC(=O)[C@](C)(CC(C)C)NC(=O)[C@@H](NC(=O)[C@](C)(CO)NC(=O)[C@H](Cc1ccncc1)NC(=O)[C@H](CC(=O)O)NC(=O)[C@H](CO)NC(=O)[C@@H](NC(=O)[C@](C)(Cc1ccccc1F)NC(=O)[C@@H](NC(=O)CNC(=O)[C@H](CCC(N)=O)NC(=O)C(C)(C)NC(=O)[C@@H](N)Cc1ccc(O)cc1)[C@@H](C)O)[C@@H](C)O)[C@@H](C)CC)[C@@H](C)CC)C(=O)N[C@@H](CCC(=O)O)C(=O)NCC(=O)NCC(=O)N1CCC[C@H]1C(=O)N[C@@H](CO)C(=O)N[C@@H](CO)C(=O)NCC(=O)N[C@@H](C)C(=O)N1CCC[C@H]1C(=O)N1CCC[C@H]1C(=O)N1CCC[C@H]1C(=O)N[C@@H](CO)C(=O)NCC(=O)N[C@@H](CO)C(N)=O [Example 1207] | 470 nM | 39.8 nM | 0.633 nM | EC50 (hGIPR [1]; [5]): 0.00647 nM; EC50 (hGLP-1R [3]; [5]): 0.299 nM; EC50 (hGcgR; [5]): 7.71 nM
 |  |  | H-Y[Aib]QGT[αMePhe(2-F)]TSD[4Pal][αMeS]I[αMeL]LD[Orn]K([AEEA-γGlu-C18 diacid])AQ[αMe4Pal]EFI[dE][αMeY]LVEGGPSSGAPPPEGE-NH2 [Example 1158] | 301 nM | 46.8 nM | 1.42 nM | EC50 (hGIPR [1]; [6]): 0.0126 nM; EC50 (hGLP-1R [3]; [6]): 0.419 nM; EC50 (hGcgR; [6]): 2.19 nM
 |  |  | H-Y[Aib]QGT[αMePhe(2-F)]TSD[4Pal]SI[αMeL]LDKK([γGlu-γGlu-C18 diacid])AQ[Aib][Orn]FIEYLTEGGPSSGEPPPSGSEE-NH2 [Example 638] |  |  |  | EC50 (human GcgR; [7]): 1090 nM; EC50 (hGIPR [1]; [8]): 0.0354 nM; EC50 (hGLP-1R [2]; [7]): 36 nM; EC50 (hGLP-1R [3]; [8]): 0.4 nM; EC50 (hGcgR; [8]): 14 nM; EC50 (hGIPR [4]; [7]): 2.39 nM
 |  |  | H-Y[Aib]QGTFTSD[4Pal]SQ[αMeL]LDKK([AEEA-γGlu-C18 diacid])AQ[Aib]AFIE[αMeY]LLEGGPSSGAPPPSGS-NH2 [Example 910] | 2640 nM | 239 nM | 25.7 nM | EC50 (hGIPR [1]; [6]): 0.111 nM; EC50 (hGLP-1R [3]; [6]): 1.49 nM; EC50 (hGcgR; [6]): 9.76 nM
0.161 nM | 0.705 nM | 5.5 nM | H-Y[Aib]QGT[αMePhe(2-F)]TSD[4Pal][αMeS]ILLD[Orn]K([γGlu-γGlu-C18 diacid])AQ[Aib][Orn]FI[dE]YLIEGGPSSGEPPPEGAEE-NH2 [Example 604] | 427 nM | 51 nM | 4.84 nM | 
 |  |  | H-Y[Aib]QGTFTSDFSK[αMeL]LDKK([AEEA-γGlu-C20 diacid])AQ[Aib]AFIEYLLEGAPSSGAPPPSEG-NH2 [Example 47] | 2140 nM | 1270 nM | 154 nM | EC50 (hGIPR [1]; [6]): 0.388 nM; EC50 (hGLP-1R [3]; [6]): 3.4 nM; EC50 (hGcgR; [6]): 5.61 nM
0.123 nM | 0.725 nM | 5.66 nM | CC[C@H](C)[C@H](NC(=O)[C@H](Cc1ccccc1)NC(=O)[C@H](CCCN)NC(=O)C(C)(C)NC(=O)[C@H](CCC(N)=O)NC(=O)[C@H](C)NC(=O)[C@H](CCCCNC(=O)COCCOCCNC(=O)COCCOCCNC(=O)CC[C@H](NC(=O)CCCCCCCCCCCCCCCCC(=O)O)C(=O)O)NC(=O)[C@H](CCCN)NC(=O)[C@H](CC(=O)O)NC(=O)[C@H](CC(C)C)NC(=O)[C@](C)(CC(C)C)NC(=O)[C@@H](NC(=O)[C@](C)(CO)NC(=O)[C@H](Cc1ccc(O)cc1)NC(=O)[C@H](CC(=O)O)NC(=O)[C@H](CO)NC(=O)[C@@H](NC(=O)[C@](C)(Cc1ccccc1F)NC(=O)[C@@H](NC(=O)CNC(=O)[C@H](CCC(N)=O)NC(=O)C(C)(C)NC(=O)[C@@H](N)Cc1ccc(O)cc1)[C@@H](C)O)[C@@H](C)O)[C@@H](C)CC)C(=O)N[C@H](CCC(=O)O)C(=O)N[C@@](C)(Cc1ccc(O)cc1)C(=O)N[C@@H](CC(C)C)C(=O)N[C@@H](CCC(=O)O)C(=O)N[C@@H](CCC(=O)O)C(=O)NCC(=O)NCC(=O)N1CCC[C@H]1C(=O)N[C@@H](CO)C(=O)N[C@@H](CO)C(=O)NCC(=O)N[C@@H](CCC(=O)O)C(=O)N1CCC[C@H]1C(=O)N1CCC[C@H]1C(=O)N1CCC[C@H]1C(=O)N[C@@H](CCC(=O)O)C(N)=O [Example 402] (H-Y[Aib]QGT[αMePhe(2-F)]TSDY[αMeS]I[αMeL]LD[Orn]K([AEEA-AEEA-γGlu-C18 diacid])AQ[Aib][Orn]FI[dE][αMeY]LEEGGPSSGEPPPE-NH2; N-terminus assumed) | 1030 nM | 86.6 nM | 44.9 nM | 

Compound | EC50 (hGIPR [1]) | EC50 (hGLP-1R [3]) | EC50 (hGcgR) | EC50 (human GcgR) | EC50 (hGLP-1R [2]) | EC50 (hGIPR [4]) | other results
Y[Aib]QGT[αMePhe(2-F)]TSD[4Pal]SILLDKK([γGlu-γGlu-C18 diacid])AQ[Aib]AFIEYLQEGGPSSGAPPPSGTEE-NH2 [Example 580] | 0.0426 nM | 0.615 nM | 7.27 nM | 922 nM | 55.3 nM | 6.29 nM | 
H-Y[Aib]QGT[αMePhe(2-F)]TSD[4Pal]SILLDKK([AEEA-γGlu-C18 diacid])AQ[Aib]AFIEYLEEGGPSSGAPPPSGTGE-NH2 [Example 662] | 0.0704 nM | 0.946 nM | 4.81 nM | 561 nM | 84.5 nM | 4.69 nM | 
